Experimental data published in patent US10265303B2, “Hyperphenylalaninemia and treatments thereof” (BERGEN TEKNOLOGIOVERFØRING AS, priority 2015, dated 2019).
Residue numbers refer to the chain shown, from its start.

Columns and labels:
hPAH = biological target: T1, hPAH (Homo sapiens, UniProt P00439); experiment: SPR screening and affinity determination on immobilized hPAH (Biacore T200); assay type: binding; settings: for Kd: SPR, 25° C., compound 0-500 μM in 5% DMSO, affinities said to be overestimated, relative KD reliable, read-out: KD (μM) ± SER
T1 sequence (P00439 1-452): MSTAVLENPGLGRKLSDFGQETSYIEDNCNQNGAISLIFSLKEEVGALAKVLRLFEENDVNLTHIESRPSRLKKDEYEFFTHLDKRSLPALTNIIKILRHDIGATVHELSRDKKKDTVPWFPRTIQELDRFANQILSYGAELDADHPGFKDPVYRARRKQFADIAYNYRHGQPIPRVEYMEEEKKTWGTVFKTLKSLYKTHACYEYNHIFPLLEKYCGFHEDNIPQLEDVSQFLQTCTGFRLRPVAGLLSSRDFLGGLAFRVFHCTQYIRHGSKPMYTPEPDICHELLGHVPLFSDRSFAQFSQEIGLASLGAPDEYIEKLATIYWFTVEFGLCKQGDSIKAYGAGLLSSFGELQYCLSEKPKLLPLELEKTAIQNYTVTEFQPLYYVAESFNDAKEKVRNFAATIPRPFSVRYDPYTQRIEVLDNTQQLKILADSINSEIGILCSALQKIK
Procedure: For detailed determination of binding affinity of Compound 53 and derivatives (FIG. 4) SPR was performed on a Biacore T200 (GE Healthcare Life Sciences) at a temperature of 25° C. A hPAH solution at 0.08 μg/μl in a final volume of 200 μl in acetate buffer pH 5.0 was immobilized onto series S sensor chip CM5 by the standard amine coupling procedure at a flow rate of 30 μl/min and PBS-P+ buffer as running buffer aiming for RU 20000. After the coupling reaction the surface of the sensor chip was washed to eliminate unbound species with HBS buffer (0.01 M NaHepes pH 7.4, 0.15 M NaCI) at steady flow of 20 μl/min for 1 hour until the baseline drift was around 0.05 RU/s; note that an early injection of 40 μl dithiothreitol (DTT) 10 mM in HBS allowed for this reduced washing time.
For the screening, compounds were assayed at a concentration of 200 μM, with 5% DMSO in duplicates, including negative controls with 5% DMSO, positive controls, with 200 μM BH2 and solvent correction was also performed. For KD calculations, a compound concentration 0-500 μM (in 5% DMSO) were applied at otherwise analogous experimental design and analyses were performed using Biacore T200 Evaluation Software, version 2.0 (GE Healthcare Life Sciences).
All the responses from the compounds of the screening were subjected to blank subtraction (negative control 5% DMSO), molecular weight adjustment and solvent correction to account for differences in bulk response. Next a cut-off value for the screening was selected based on the response of the positive control of our experiments: RU BH2+3*SD (2.88+3*1.79=8.27). In this manner, from the 11 derivatives of Compound 53 tested (see FIG. 4) we weeded out those compounds with a lower response than 8.27, namely #53.2, #53.9 and #53.11.
In addition and for the rest of the compounds which continued our workflow, binding affinities were determined and the results are shown in the following table. The selected conditions to measure affinity are selected for high throughput measurements, but the affinities are overestimated though the relative KD for the different compounds are reliable.

human wild-type PAH [1] = biological target: T2, human wild-type PAH (Homo sapiens, UniProt P00439); experiment: PAH activity in lysates of HEK293 cells permanently expressing human wild-type PAH; assay type: cell-based; settings: 1% DMSO, 8 h; for PAH activity-cells (%): 0.04 mg/ml compound, Table 3; for increase of hPAH activity with respect to the control (FIG. 6): average compound concentration 144.9 μM
T2 construct: expressed in transfected cells
T2 sequence (P00439 1-452): T1 sequence (P00439 1-452)
Procedure: (§1) Human embryonic kidney cells (HEK293; Life Technologies™) permanently expressing WT-hPAH, prepared with the Flp-In system (Life Technologies™) were kindly provided by Per Knappskog, Haukeland University Hospital. About 1 million cells were grown in DMEM medium containing 4.5 g/l glucose, 10% (v/v) fetal calf serum, 0.25 mg/ml gentamycine, 2 mM L-glutamine and 50 μg/ml hygromycin B, and after 24 h medium was changed and the test compounds were added at a concentration of 0.02 mg/ml (1% DMSO). Eight hours later, the cells were harvested, and the pellets frozen in dry ice and stored at −80° C. […] To prepare the cell extracts, the frozen cell pellets were thawed in TBS (+protease inhibitor) buffer and cells were homogenized with 0.1% TX-100, incubated 15 minutes at 4° C. and extracts were clarified by centrifugation 20000 g for 15 min at 4° C. Protein concentrations were normalized using a Direct Detect Spectrometer (Merck Millipore).
The 7 selected compounds as well as the first generation pharmacological chaperones (Compounds III and IV) were further analyzed in the presence and absence of BH2 (200 μM), added as precursor of BH4, to account for additive effects. […]
as §1, with “and the compounds were” for “and the test compounds were”, “concentration of 0.04 mg/ml (1%” for “concentration of 0.02 mg/ml (1%”, “for 15 minutes at 4°” for “for 15 min at 4°”

R261Q-PAH = biological target: T3, R261Q-PAH (Homo sapiens, UniProt P00439, R261Q); experiment: PAH protein level and activity in HEK293 EBNA cells transiently expressing PKU mutant R261Q; assay type: cell-based; settings: 200 μM, 24 h, 1% DMSO
T3 construct: expressed in transfected cells; host or cells: HEK293 EBNA, transient, pcDNA3-PAH
T3 sequence (P00439 1-452 R261Q): T1 sequence (P00439 1-452) with R261Q
Procedure: (§2) Cell lysates were prepared as indicated above.

human wild-type PAH [2] = biological target: T2, human wild-type PAH; experiment: PAH immunoreactive protein level (Western blot) in HEK293 cells permanently expressing human wild-type PAH; assay type: cell-based; settings: BH2 200 μM alone, 8 h, 1% DMSO
Procedure: as §1
The 7 selected compounds as well as the first generation pharmacological chaperones (Compounds III and IV) were further analyzed in the presence and absence of BH2 (200 μM), added as precursor of BH4, to account for additive effects. A higher concentration of compound was also used 0.04 mg/ml (average of 116.7 μM) at otherwise same experimental conditions.

I65T-PAH = biological target: T4, I65T-PAH (Homo sapiens, UniProt P00439, I65T); experiment: PAH protein level and activity in HEK293 EBNA cells transiently expressing PKU mutant I65T; assay type: cell-based; settings: 200 μM, 24 h, 1% DMSO
T4 construct: expressed in transfected cells; host or cells: HEK293 EBNA, transient, pcDNA3-PAH
T4 sequence (P00439 1-452 I65T): T1 sequence (P00439 1-452) with I65T
Procedure: as §2

[3] = biological target: dihydrofolate reductase (DHFR); settings: read-out: IC50 (DHFR); ChEMBL database; cited from earlier work

Kd (hPAH) | PAH activity-cells (%) (human wild-type PAH [1]) | Structure (SMILES) | also measured
22.9 ± 2.7 µM | 155 ± 13% | Nc1nc2c(c(=O)[nH]1)C(c1ccc(Cl)cc1Cl)CC(=O)N2 (racemic) [c53.10] | increase of hPAH activity with respect to the control (FIG. 6) (human wild-type PAH [1]): around 40%
76.3 ± 26.4 µM | 146 ± 10% | COc1ccc(C2CC(=O)Nc3nc(N)[nH]c(=O)c32)cc1OC (racemic) [c53.16] | –
11 ± 3.7 µM | 206 ± 10% | Nc1nc2c(c(=O)[nH]1)C(c1ccc3c(c1)OCO3)CC(=O)N2 (racemic) [c53.17] | –
37.2 ± 23.7 µM | 170 ± 17% | COc1ccc(C2CC(=O)Nc3nc(N)[nH]c(=O)c32)cc1 (racemic) [c53.19] | –
23.2 ± 11.7 µM | 206 ± 5% | COc1cccc(C2CC(=O)Nc3nc(N)[nH]c(=O)c32)c1 (racemic) [c53.20] | –
30.1 ± 6.5 µM | 154 ± 16% | Nc1nc2c(c(=O)[nH]1)C(c1ccc(Cl)cc1)CC(=O)N2 (racemic) [c53.22] | –
62.1 ± 30.7 µM | 109 ± 5% | CSc1nc2c(c(=O)[nH]1)C(c1ccc3c(c1)OCO3)CC(=O)N2 (racemic) [c53.26] | –
191 ± 20 µM | 155 ± 7% | COc1cc(C2CC(=O)Nc3nc(N)ccc32)cc(Cl)c1OC (racemic) [c53.29] | –
55.9 ± 6.7 µM | 125 ± 8% | COc1ccc(C2CC(=O)Nc3nc(N)ccc32)cc1O (racemic) [c53.31] | –
102 ± 11 µM | – | Nc1ccc2c(n1)NC(=O)CC2c1ccc2c(c1)OCCO2 (racemic) [c53.32] | –
182 ± 32 µM | – | COc1ccc(C2CC(=O)Nc3nc(N)ccc32)c(OC)c1OC (racemic) [c53.33] | –
23.7 ± 5 µM | – | Nc1nc2c(c(=O)[nH]1)C(c1ccc3c(c1)OCO3)CC(=O)N2 (racemic) [c53.35] | –
11.6 ± 1.6 µM | – | Nc1nc2c(c(=O)[nH]1)C(c1cccc(Cl)c1)CC(=O)N2 (racemic) [c53.40] | –
12.6 ± 6.4 µM | – | Nc1nc2c(c(=O)[nH]1)C(c1cccc3ccccc13)CC(=O)N2 (racemic) [c53.41] | –
– | – | C[C@H](O)[C@H](O)C1=Nc2c(nc(N)[nH]c2=O)NC1 [BH2] | PAH activity, mutant R261Q (R261Q-PAH): increased; hPAH protein level, mutant R261Q (R261Q-PAH): increased; SPR screening response (blank-subtracted, MW-adjusted, solvent-corrected) (hPAH; 200 μM, 5% DMSO, duplicates, cut-off 8.27): 2.88 RU; stimulating effect on PAH activity (human wild-type PAH [1]; BH2 200 μM alone): 21.7%; stimulating effect on PAH protein (human wild-type PAH [2]): 24.8%; PAH activity, mutant I65T (I65T-PAH): increased; hPAH protein level, mutant I65T (I65T-PAH): increased
– | – | COc1cc(Cc2ccc(N)nc2N)cc(OC)c1O [CHEMBL 128600] | IC50 [3]: 10000 µM
104 ± 14 µM | 130 ± 8% | COc1ccc(Cc2cnc(N)nc2N)cc1OC [c53.1] | –
45.2 ± 9.1 µM | 165 ± 28% | COc1cc(Cc2ccc(N)nc2N)cc(OC)c1OC [c53.4] | increase of hPAH activity with respect to the control (FIG. 6) (human wild-type PAH [1]): around 40%
370 ± 228 µM | – | COc1cc(C(c2c[nH]c3ccccc23)c2c[nH]c3ccccc23)cc(OC)c1OC [c53.5] | –
103 ± 48.8 µM | 120 ± 12% | CCOc1ccc(Cc2cnc(S)nc2N)cc1 [c53.6] | –
6.9 ± 4.9 µM | 119 ± 5% | Nc1ncc(Cc2ccc3c(c2)OCO3)c(N)n1 [c53.7] | –
24.7 ± 12.1 µM | 175 ± 23% | Nc1nc(N)c(Cc2ccc3c(c2)OCO3)c(N)n1 [c53.14] | –
